Measured values: the supplement of paper PMC10307832

Columns and labels:
Experiment in all cases: relative viability (nuclei count vs DMSO), 5 days (fraction); higher = more cells survive
AT9283 + Vorinostat = compound: O=C(Nc1c[nH]nc1-c1nc2ccc(CN3CCOCC3)cc2[nH]1)NC1CC1 [AT9283] + O=C(CCCCCCC(=O)Nc1ccccc1)NO [Vorinostat] (partner 1 µM)
Outline: (§1)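 Nuclei were stained with Hoechst during a one-step fixation (final 0.05% Triton X-100, 1% formaldehyde, 1 ug/ml Hoechst) carried out 5 days after dosing, then counted on 4× images. The cells, lung cancer lines in 1536-well plates, had been dosed by pin tool the day after seeding with one drug alone or a fixed anchor-drug dose plus five library-drug doses (not always all listed) in √10 steps. Relative viability is the nuclei count in treated wells divided by that in vehicle wells, and each value is the median of duplicate plates.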

AT9283 + Navitoclax = compound: O=C(Nc1c[nH]nc1-c1nc2ccc(CN3CCOCC3)cc2[nH]1)NC1CC1 [AT9283] + CC1(C)CCC(c2ccc(Cl)cc2)=C(CN2CCN(c3ccc(C(=O)NS(=O)(=O)c4ccc(N[C@H](CCN5CCOCC5)CSc5ccccc5)c(S(=O)(=O)C(F)(F)F)c4)cc3)CC2)C1 [Navitoclax] (partner 0.5 µM)
Outline: as §1

AT9283 + Lapatinib = compound: O=C(Nc1c[nH]nc1-c1nc2ccc(CN3CCOCC3)cc2[nH]1)NC1CC1 [AT9283] + CS(=O)(=O)CCNCc1ccc(-c2ccc3ncnc(Nc4ccc(OCc5cccc(F)c5)c(Cl)c4)c3c2)o1 [Lapatinib] (partner 2 µM)
Outline: as §1

Cell Line	relative viability (AT9283 + Vorinostat; first compound 0.003 µM)	relative viability (AT9283 + Vorinostat; first compound 0.03 µM)	relative viability (AT9283 + Vorinostat; first compound 0.09487 µM)	relative viability (AT9283 + Vorinostat; first compound 0.3 µM)	relative viability (AT9283 + Navitoclax; first compound 0.003 µM)	relative viability (AT9283 + Navitoclax; first compound 0.03 µM)	relative viability (AT9283 + Navitoclax; first compound 0.09487 µM)	relative viability (AT9283 + Navitoclax; first compound 0.3 µM)	relative viability (AT9283 + Lapatinib; first compound 0.003 µM)	relative viability (AT9283 + Lapatinib; first compound 0.03 µM)	relative viability (AT9283 + Lapatinib; first compound 0.09487 µM)	relative viability (AT9283 + Lapatinib; first compound 0.3 µM)
NCI-H2087	1.01	0.158	0.179	0.126	0.985	0.713	0.273	0.186	0.894	0.269	0.222	0.186
NCI-H2126	0.729	0.552	0.486	0.249	0.871	0.892	0.634	0.319	0.748	0.737	0.66	0.296
NCI-H2170	0.765	0.514	0.272	0.13	0.536	0.334	0.201	0.179	0.242	0.261	0.2	0.2
NCI-H2228	0.655	0.277	0.133	0.103	0.93	0.774	0.51	0.144	1.06	0.367	0.115	0.141
NCI-H2347	0.826	0.566	0.357	0.288	0.93	0.764	0.368	0.267	0.894	0.866	0.571	0.501
NCI-H2405	0.959	0.576	0.3	0.24	1.05	0.31	0.127	0.0943	1.15	0.789	0.295	0.198
NCI-H3122	0.851	0.978	0.598	0.138	1.01	0.902	0.359	0.298	1.07	0.964	0.446	0.328
